Reference: PubChem BioAssay (NCI)
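Exposure lasted 48 hours, with cells grown in 96-well plates and compounds tested at five concentrations. At the GI50, growth is halved. TGI: concentration producing complete growth inhibition.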

Key:
Assay in all cases: inhibition of tumour cell growth, NCI panel, 48 h
[1] = tested on: KM12 colon
[2] = tested on: RPMI-8226 leukemia
[3] = tested on: HOP-62 NSCLC
[4] = tested on: 786-0 renal
[5] = tested on: SN12C renal
[6] = tested on: SK-OV-3 ovarian
[7] = tested on: NCI-H23 lung
[8] = tested on: CCRF-CEM leukemia
[9] = tested on: MDA-MB-231 breast
[10] = tested on: COLO 205 colon
[11] = tested on: PC-3 prostate
[12] = tested on: HOP-92 NSCLC
[13] = tested on: HL-60(TB) leukemia
[14] = tested on: SK-MEL-28 melanoma
[15] = tested on: NCI-H460 lung
[16] = tested on: MOLT-4 leukemia
[17] = tested on: MDA-MB-435
[18] = tested on: OVCAR-4 ovarian
[19] = tested on: NCI/ADR-RES ovarian
[20] = tested on: HS 578T breast
[21] = tested on: HCT-116 colon
[22] = tested on: HCT-15 colon
[23] = tested on: OVCAR-8 ovarian
[24] = tested on: SK-MEL-5 melanoma
[25] = tested on: TK-10 renal
[26] = tested on: M14 melanoma
[27] = tested on: SK-MEL-2 melanoma
[28] = tested on: RXF 393 renal
[29] = tested on: T-47D breast

CC(C)=CCc1c(O)c(CC=C(C)C)c2c(c1O)C(=O)C1=C[C@@H]3C[C@H]4C(C)(C)O[C@@](C/C=C(\C)C(=O)O)(C3=O)[C@@]14O2
TGI [1]: 47.1 µM | GI50 [2]: 12.8 µM | TGI [2]: 50.8 µM | GI50 [3]: 23.8 µM | TGI [3]: 58.7 µM | GI50 [4]: 18.8 µM | TGI [4]: 37.3 µM | GI50 [5]: 29.4 µM | TGI [5]: > 100 µM | GI50 [6]: 59.6 µM | TGI [6]: > 100 µM | GI50 [7]: 22.5 µM | TGI [7]: 69.2 µM | GI50 [8]: 18.5 µM | TGI [8]: 76.5 µM | GI50 [9]: 42.1 µM | TGI [9]: > 100 µM | GI50 [10]: 19.3 µM | TGI [10]: 45.5 µM | GI50 [11]: 25 µM | TGI [11]: 64.8 µM | GI50 [12]: 19 µM | TGI [12]: 45 µM | GI50 [13]: 21.1 µM | TGI [13]: 70.3 µM | GI50 [14]: 24.8 µM | TGI [14]: 69.1 µM | GI50 [15]: 19.8 µM | TGI [15]: 44 µM | GI50 [16]: 25.1 µM | TGI [16]: 93.4 µM | GI50 [17]: 23.9 µM | TGI [17]: 62.9 µM | GI50 [18]: 41.7 µM | TGI [18]: > 100 µM | GI50 [19]: 33.3 µM | TGI [19]: > 100 µM | GI50 [20]: 42.6 µM | TGI [20]: > 100 µM | GI50 [21]: 18 µM | TGI [21]: 34.2 µM | GI50 [22]: 23.9 µM | TGI [22]: > 100 µM | GI50 [23]: 28.4 µM | TGI [23]: > 100 µM | GI50 [24]: 18.8 µM | TGI [24]: 36.1 µM | GI50 [25]: 25.6 µM | TGI [25]: 50.9 µM | GI50 [26]: 19.9 µM | TGI [26]: 52.3 µM | GI50 [27]: 19.8 µM | TGI [27]: 43 µM | GI50 [28]: 21.6 µM | TGI [28]: 42.2 µM | GI50 [29]: 23.6 µM | TGI [29]: 79.3 µM
